Common to all, as to assay type: biochemical
The target in one assay is T1, LATS2 (Homo sapiens, UniProt Q9NRM7).
T1 sequence (Q9NRM7 1-1088): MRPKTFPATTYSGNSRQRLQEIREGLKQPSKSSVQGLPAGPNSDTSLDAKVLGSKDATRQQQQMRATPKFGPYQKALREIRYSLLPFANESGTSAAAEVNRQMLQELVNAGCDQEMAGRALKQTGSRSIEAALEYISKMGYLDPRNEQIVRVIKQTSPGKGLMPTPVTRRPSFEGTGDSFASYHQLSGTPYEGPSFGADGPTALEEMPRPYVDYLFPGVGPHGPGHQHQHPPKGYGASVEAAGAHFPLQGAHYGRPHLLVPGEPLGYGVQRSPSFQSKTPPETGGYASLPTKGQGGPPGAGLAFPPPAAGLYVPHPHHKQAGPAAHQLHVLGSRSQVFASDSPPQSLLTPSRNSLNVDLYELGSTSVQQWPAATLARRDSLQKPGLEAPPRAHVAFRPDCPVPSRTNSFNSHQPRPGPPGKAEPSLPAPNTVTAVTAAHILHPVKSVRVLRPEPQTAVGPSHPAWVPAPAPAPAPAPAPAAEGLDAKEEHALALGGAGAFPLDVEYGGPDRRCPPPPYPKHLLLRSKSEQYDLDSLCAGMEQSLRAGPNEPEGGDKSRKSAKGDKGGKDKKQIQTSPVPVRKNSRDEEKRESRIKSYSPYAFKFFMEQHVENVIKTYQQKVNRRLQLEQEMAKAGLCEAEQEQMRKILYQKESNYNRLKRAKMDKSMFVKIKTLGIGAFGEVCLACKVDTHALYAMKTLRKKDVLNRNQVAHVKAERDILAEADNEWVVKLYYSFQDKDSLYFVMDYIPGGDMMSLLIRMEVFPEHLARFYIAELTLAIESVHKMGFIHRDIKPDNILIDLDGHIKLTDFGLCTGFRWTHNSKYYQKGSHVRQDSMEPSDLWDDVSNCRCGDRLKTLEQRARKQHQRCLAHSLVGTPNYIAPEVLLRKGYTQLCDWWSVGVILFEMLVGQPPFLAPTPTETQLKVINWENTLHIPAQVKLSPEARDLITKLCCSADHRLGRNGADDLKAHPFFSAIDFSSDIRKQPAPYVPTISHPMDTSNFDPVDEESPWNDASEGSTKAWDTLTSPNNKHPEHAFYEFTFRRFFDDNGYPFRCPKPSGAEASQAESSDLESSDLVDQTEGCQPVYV
The experiment in a line: RBC HotSpot kinase assay (33P-ATP, P81 filter-binding), LATS2. The following applies: Table 28, biochemical kinase assay; read-out: LATS2 IC50. The method in brief: (§1)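 Substrate in fresh buffer receives cofactors, then kinase, then compound in DMSO for a 20 min room-temperature preincubation. Reactions start with 33P-ATP and run 2 h; phosphorylation is read by P81 filter binding, and IC50 comes from a 10-point curve.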

In the next assay the target is T2, LATS1 (Homo sapiens, UniProt O95835).
T2 sequence (O95835 1-1130): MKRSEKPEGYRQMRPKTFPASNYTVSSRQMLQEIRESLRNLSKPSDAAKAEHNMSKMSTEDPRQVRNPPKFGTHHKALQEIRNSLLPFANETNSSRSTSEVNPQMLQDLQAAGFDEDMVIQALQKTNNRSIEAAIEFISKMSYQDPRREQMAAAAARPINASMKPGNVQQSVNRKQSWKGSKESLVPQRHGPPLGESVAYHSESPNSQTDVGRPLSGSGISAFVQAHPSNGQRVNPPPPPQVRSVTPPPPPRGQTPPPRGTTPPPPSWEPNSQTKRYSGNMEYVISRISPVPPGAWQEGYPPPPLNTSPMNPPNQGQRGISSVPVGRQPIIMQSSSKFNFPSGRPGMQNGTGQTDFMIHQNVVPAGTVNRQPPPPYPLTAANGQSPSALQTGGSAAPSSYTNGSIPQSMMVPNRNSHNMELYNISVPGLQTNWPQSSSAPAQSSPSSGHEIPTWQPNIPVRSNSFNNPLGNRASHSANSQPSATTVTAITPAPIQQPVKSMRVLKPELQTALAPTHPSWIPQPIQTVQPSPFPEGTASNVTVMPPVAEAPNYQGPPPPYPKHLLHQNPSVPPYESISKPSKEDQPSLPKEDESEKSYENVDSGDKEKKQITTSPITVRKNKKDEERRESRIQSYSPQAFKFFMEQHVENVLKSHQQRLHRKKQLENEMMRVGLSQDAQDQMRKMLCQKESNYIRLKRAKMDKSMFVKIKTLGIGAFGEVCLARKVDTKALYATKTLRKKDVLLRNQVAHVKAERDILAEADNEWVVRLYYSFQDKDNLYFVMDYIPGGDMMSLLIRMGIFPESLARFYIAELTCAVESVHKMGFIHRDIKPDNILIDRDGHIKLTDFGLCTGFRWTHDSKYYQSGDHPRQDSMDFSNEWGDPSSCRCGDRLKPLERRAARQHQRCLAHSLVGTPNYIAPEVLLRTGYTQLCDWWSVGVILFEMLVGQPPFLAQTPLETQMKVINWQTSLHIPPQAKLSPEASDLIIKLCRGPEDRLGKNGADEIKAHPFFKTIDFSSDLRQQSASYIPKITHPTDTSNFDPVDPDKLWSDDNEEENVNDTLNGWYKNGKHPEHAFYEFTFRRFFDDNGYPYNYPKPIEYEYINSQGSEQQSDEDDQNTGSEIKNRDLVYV
Description: RBC HotSpot kinase assay (33P-ATP, P81 filter-binding), LATS1. The following applies: Table 28, biochemical kinase assay; read-out: LATS1 IC50. Summed up: as §1

The target of another assay is AKT (Homo sapiens, UniProt P31749). The experiment in a line: RBC HotSpot kinase assay (33P-ATP, P81 filter-binding), AKT. As to conditions: Table 28, biochemical kinase assay; read-out: AKT IC50. The method in brief: as §1
AKT, sequence (P31749 whole entry): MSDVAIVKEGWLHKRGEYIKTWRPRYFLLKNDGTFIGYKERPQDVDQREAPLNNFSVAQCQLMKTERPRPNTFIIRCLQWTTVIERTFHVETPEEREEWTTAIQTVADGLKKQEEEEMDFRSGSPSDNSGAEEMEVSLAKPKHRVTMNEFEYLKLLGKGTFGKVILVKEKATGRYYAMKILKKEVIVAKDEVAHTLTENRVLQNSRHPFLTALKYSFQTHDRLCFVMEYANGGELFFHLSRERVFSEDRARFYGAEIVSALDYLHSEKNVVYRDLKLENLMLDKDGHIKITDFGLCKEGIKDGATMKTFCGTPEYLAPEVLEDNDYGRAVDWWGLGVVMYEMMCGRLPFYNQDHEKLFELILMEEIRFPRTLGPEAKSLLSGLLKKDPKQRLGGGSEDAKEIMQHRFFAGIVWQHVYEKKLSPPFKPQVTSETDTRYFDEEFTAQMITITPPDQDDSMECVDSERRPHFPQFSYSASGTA

Bounds are passed on as bounds.

A word on the IC50: it is the point on the concentration scale where inhibition reaches its midpoint.

For the compound `CCN(CC)c1cc(-c2ccnc3[nH]ccc23)ccc1CNC(C)=O` [Compound 236, N-(2-(diethylamino)-4-(1H-pyrrolo[2,3-b]pyridin-4-yl)benzyl)acetamide], the values for the IC50 at LATS2, on LATS1 and on AKT were 887 nM, 772 nM and 3590 nM, respectively.

Take `CCN(CC)c1cc(-c2ccnc3[nH]ccc23)ccc1CN` [Compound 237, 2-(aminomethyl)-N,N-diethyl-5-(1H-pyrrolo[2,3-b]pyridin-4-yl)aniline]: the IC50 on LATS2 stood at 23 nM; at LATS1, 12 nM; on AKT, 100 nM.

`COc1ccc(-c2c[nH]c3nccc(-c4ccc(CN)cc4)c23)cc1` [Compound 239, (4-(3-(4-methoxyphenyl)-1H-pyrrolo[2,3-b]pyridin-4-yl)phenyl) methanamine]: the half-inhibitory concentration (IC50) was 26 nM at LATS2, 67 nM on LATS1 and 1310 nM at AKT.

As to `C=C(C)c1cc(-c2ccnc3[nH]ccc23)ccc1CN` [Compound 240, (2-(prop-1-en-2-yl)-4-(1H-pyrrolo[2,3-b]pyridin-4-yl)phenyl) methanamine], the values for the half-inhibitory concentration (IC50) at LATS2, at LATS1 and on AKT were 33.8 nM, 4.3 nM and 178 nM, respectively.

As to `C=C(C)c1c[nH]c2nccc(-c3ccc(CN)cc3)c12` [Compound 241, (4-(3-(prop-1-en-2-yl)-1H-pyrrolo[2,3-b]pyridin-4-yl)phenyl) methanamine], the concentration for half-maximal inhibition (IC50) came to 6 nM at LATS2, 19 nM on LATS1 and 809 nM on AKT.

In the case of `COc1ccccc1-c1c[nH]c2nccc(-c3ccc(CN)cc3)c12` [Compound 242, (4-(3-(2-methoxyphenyl)-1H-pyrrolo[2,3-b]pyridin-4-yl)phenyl) methanamine], the 50% inhibitory concentration (IC50) on LATS2 stood at 10 nM; on LATS1, 11 nM; on AKT it was 1320 nM.

Take `NCc1ccc(-c2ccnc3[nH]cc(-c4ccc(F)cc4)c23)cc1` [Compound 243, (4-(3-(4-fluorophenyl)-1H-pyrrolo[2,3-b]pyridin-4-yl)phenyl) methanamine]: the IC50 on LATS2 stood at 24 nM; at LATS1, 72 nM; at AKT, 2330 nM.

Turning to `CC(C)(O)C#Cc1cc(-c2ccnc3[nH]ccc23)ccc1CN` [Compound 244, 4-(2-(aminomethyl)-5-(1H-pyrrolo[2,3-b]pyridin-4-yl)phenyl)-2-methylbut-3-yn-2-ol], the results for the IC50 at LATS2, on LATS1 and at AKT were 28 nM, 20 nM and 1250 nM, respectively.

Take `NCc1ccc(-c2ccnc3[nH]ccc23)cc1-c1ccccc1` [Compound 246, (5-(1H-pyrrolo[2,3-b]pyridin-4-yl)-[1,1′-biphenyl]-2-yl)methanamine]: the half-maximal inhibitory concentration (IC50) at LATS2 was 20 nM; at LATS1, 15 nM; at AKT it was 378 nM.

Turning to `NCc1ccc(-c2ccnc3[nH]cc(-c4cccc(F)c4)c23)cc1` [Compound 247, (4-(3-(3-fluorophenyl)-1H-pyrrolo[2,3-b]pyridin-4-yl)phenyl) methanamine], the IC50 came out at 11 nM on LATS2, 21 nM at LATS1 and 1410 nM at AKT.

Turning to `NCc1ccc(-c2ccnc3[nH]cc(-c4ccccc4F)c23)cc1` [Compound 248, (4-(3-(2-fluorophenyl)-1H-pyrrolo[2,3-b]pyridin-4-yl)phenyl) methanamine], the IC50 was 10 nM at LATS2, 50 nM at LATS1 and 2840 nM on AKT.

In the case of `NCc1ccc(-c2ccnc3[nH]cc(Cl)c23)cc1Cl` [Compound 249, (2-chloro-4-(3-chloro-1H-pyrrolo[2,3-b]pyridin-4-yl)phenyl) methanamine], the values for the IC50 on LATS2, at LATS1 and at AKT were 7.9 nM, 8.4 nM and 218 nM, respectively.

For `Cc1cc2c(-c3ccc(CN)cc3)ccnc2[nH]1` [Compound 251, (4-(2-methyl-1H-pyrrolo[2,3-b]pyridin-4-yl)phenyl) methanamine], the concentration for half-maximal inhibition (IC50) at LATS2 was 389 nM; at LATS1 it was 893 nM; at AKT it was greater than 10000 nM.

Values taken from patent publication US20250361230A1, “LATS Inhibitors and Uses Thereof” (The USA, as Represented by the Secretary, Dept. of Heath …, priority 2022, published 2025).
